The record followed here is the supplement of paper PMC3493320.

For experiment [1], the system named is NCI-H295R. Briefly: IC50 (antiproliferative, ATP content). The note with it: 48 h.
Experiment [2] relates to NCI-H295R. Briefly: maximal response (efficacy) relative to DMSO (0%) and doxorubicin (-100%); higher = less growth inhibition. The note with it: 48 h.

“And” between values parts separate entries of the source, which are not always exact repeats. Identical values can stand only once.

With `Cc1cc2c(C(C)C)c(O)c(O)c(C=O)c2c(O)c1-c1c(C)cc2c(C(C)C)c(O)c(O)c(C=O)c2c1O`, in the experiment on NCI-H295R [1], the 50% inhibitory concentration (IC50) (as a rule, the concentration needed to halve the response being measured) was found to be 10.6 µM. The maximal response in the experiment with NCI-H295R [2] was -127%.

In the experiment on NCI-H295R [1], `C[C@@H](C)[C@H]1C3=C(C=C(F)C=C3)CC[C@@](OC(COC)=O)1CCN(C)CCCC4=NC2=C(N4)C=CC=C2.Cl.Cl` displayed a concentration for half-maximal inhibition (IC50) of 10.6 µM. For the same compound, the maximal response in the experiment with NCI-H295R [2] is -126%.

For `[O-]S(C1=C(O)C(\C(C4=CC=C(N(C)C)C=C4)=C(C=C2)/C=C/C2=[N+](C)\C)=C(C=C3)C(C=C3S([O-])(=O)=O)=C1)(=O)=O.[Na+]`, in the experiment on NCI-H295R [1], the concentration for half-maximal inhibition (IC50) was determined as 11.9 µM. In addition, the maximal response in the experiment on NCI-H295R [2] was -103%.

With `O=c1c(-c2ccccc2)c1-c1ccccc1`, the IC50 in the experiment with NCI-H295R [1] is 18.8 µM. Besides, the maximal response with NCI-H295R [2] is -142%.

Compound `Cc1cc(/C=C/c2ccc3cc(N(C)C)ccc3[n+]2C)c(C)n1-c1ccccc1.Cc1cc(/C=C/c2ccc3cc(N(C)C)ccc3[n+]2C)c(C)n1-c1ccccc1.O=C([O-])c1cc2ccccc2c(Cc2c(O)c(C(=O)[O-])cc3ccccc23)c1O` had a half-maximal inhibitory concentration (IC50) in the experiment on NCI-H295R [1] of 7.18 µM. In the experiment with NCI-H295R [2], the maximal response is -69.7%.

For the compound `CC(=O)[C@]1(O)Cc2c(O)c3c(c(O)c2[C@@H](O[C@H]2C[C@H](N)[C@H](O)[C@H](C)O2)C1)C(=O)c1c(O)cccc1C3=O`, the 50% inhibitory concentration (IC50) in the experiment with NCI-H295R [1] is 1.19 µM and 1.88 µM. Further, the maximal response in the experiment with NCI-H295R [2] is -123% and -125%.

Consider `C=C1/C(=C\C=C2/CCC[C@]3(C)[C@@H]([C@H](C)CCCC(C)(C)O)CC[C@@H]23)C[C@@H](O)C[C@@H]1O`, for which, in the experiment with NCI-H295R [1], the half-inhibitory concentration (IC50) was found to be 18.8 µM. The maximal response in the experiment with NCI-H295R [2] was -140%.

In the experiment on NCI-H295R [1], `O=C\1OC/C(=C/1)[C@H]8CC[C@@]7(O)[C@]8(C)CC[C@H]2[C@H]7CC[C@@H]3C[C@H](CC[C@]23C)O[C@@H]6O[C@H](C)[C@@H](O[C@H]5C[C@H](O)[C@H](O[C@H]4C[C@H](O)[C@H](O)[C@@H](C)O4)[C@@H](C)O5)[C@@H](O)C6` displayed a half-maximal inhibitory concentration (IC50) of 0.0841 µM. The maximal response in the experiment with NCI-H295R [2] was -109%.

Compound `Cc1cc(C(C#N)c2ccc(Cl)cc2)c(Cl)cc1NC(=O)c1cc(I)cc(I)c1O` (stereo unspecified) showed a half-inhibitory concentration (IC50) in the experiment with NCI-H295R [1] of 4.22 µM. In the experiment with NCI-H295R [2], the maximal response was -130%.

For the compound `COc1ccc(CN2CCN(C(c3ccc(F)cc3)c3ccc(F)cc3)CC2)c(OC)c1OC`, the IC50 with NCI-H295R [1] was 21.1 µM. Besides, in the experiment with NCI-H295R [2], the maximal response was -95.1%.

Compound `C=CCNC1=C2C[C@@H](C)C[C@H](OC)[C@H](O)[C@@H](C)/C=C(\C)[C@H](OC(N)=O)[C@@H](OC)/C=C\C=C(/C)C(=O)NC(=CC1=O)C2=O` returned an IC50 in the experiment on NCI-H295R [1] of 8.41 µM. The maximal response with NCI-H295R [2] is -105%.

Compound `COC(=O)C[C@](O)(CCCC(C)(C)O)C(=O)O[C@@H]1C(OC)=C[C@]23CCCN2CCc2cc4c(cc2[C@H]13)OCO4` showed a 50% inhibitory concentration (IC50) with NCI-H295R [1] of 0.211 µM. The maximal response with NCI-H295R [2] is -125%.

In the experiment with NCI-H295R [1], `CC(=O)Oc1ccccc1C(=O)Nc1ncc([N+](=O)[O-])s1` returned an IC50 of 15 µM. Moreover, the maximal response in the experiment on NCI-H295R [2] is -70.8%.

Regarding `CCOc1nc2cccc(C(=O)O)c2n1Cc1ccc(-c2ccccc2-c2nnn[nH]2)cc1`, the IC50 with NCI-H295R [1] amounted to 15 µM. Also, in the experiment on NCI-H295R [2], the maximal response was -145%.

The compound `COc1cc(NCCCC(C)N)c2ncccc2c1` (stereo unspecified) came in with a half-inhibitory concentration (IC50) with NCI-H295R [1] of 2.37 µM. The maximal response with NCI-H295R [2] is -124%.

Regarding `O=C\1OC/C(=C/1)[C@H]2CC[C@@]8(O)[C@]2(C)[C@H](O)C[C@H]3[C@H]8CC[C@@H]4C[C@H](CC[C@]34C)O[C@@H]7O[C@H](C)[C@@H](O[C@H]6C[C@H](O)[C@H](O[C@H]5C[C@H](O)[C@H](O)[C@@H](C)O5)[C@@H](C)O6)[C@@H](O)C7`, in the experiment on NCI-H295R [1], the concentration for half-maximal inhibition (IC50) was 0.188 µM. Further, in the experiment on NCI-H295R [2], the maximal response was -111%.

Compound `COc1cc([C@@H]2c3cc4c(cc3C(O[C@@H]3O[C@@H]5COC(c6cccs6)O[C@H]5[C@H](O)[C@H]3O)C3COC(=O)[C@@H]32)OCO4)cc(OC)c1O` (stereo partly specified) yielded an IC50 in the experiment with NCI-H295R [1] of 8.41 µM. Further, the maximal response in the experiment with NCI-H295R [2] was -94.9%.

On to `[C@@]82([C@@]([C@@H](/C1=C/C(=O)OC1)CC2)(CC[C@@H]9[C@]7(CCC(O[C@@H]3O[C@@H]([C@H]([C@H](C3)O)O[C@@H]6O[C@@H]([C@@H](O[C@@H]5O[C@@H]([C@@H](O[C@H]4[C@@H]([C@@H](O)[C@@H]([C@H](O4)CO)O)O)[C@H](C5)OC(=O)C)C)[C@H](C6)O)C)C)C[C@H]7CC[C@@H]89)C)C)O` (stereo partly specified), for which the IC50 in the experiment with NCI-H295R [1] came to 0.188 µM. The maximal response with NCI-H295R [2] was -114%.

On to `Cl.Cl.Fc1ccc(C(OCCN2CCN(CCCc3ccccc3)CC2)c2ccc(F)cc2)cc1`, for which the IC50 in the experiment with NCI-H295R [1] was 23.7 µM. The maximal response in the experiment on NCI-H295R [2] was -154%.

`CCc1oc2ccccc2c1C(=O)c1cc(I)c(O)c(I)c1` gave an IC50 in the experiment on NCI-H295R [1] of 7.5 µM. Also, the maximal response with NCI-H295R [2] was -101%.

Consider `O=C([C@](C(C=C4OC)=C(C=C4OC)OC3)([H])[C@]3([H])O2)C(C=C5)=C2C1=C5O[C@@H]([C@@](C)=C)C1`, for which the IC50 in the experiment with NCI-H295R [1] was 0.75 µM. The maximal response in the experiment on NCI-H295R [2] is -69.2%.

In the experiment with NCI-H295R [1], `CCOC(=O)N1CCC(=C2c3ccc(Cl)cc3CCc3cccnc32)CC1` displayed a 50% inhibitory concentration (IC50) of 29.9 µM. The maximal response in the experiment on NCI-H295R [2] is -151%.

In the case of `CCCCCCCC/C=C\CCCCCCCC(=O)NCc1ccc(O)c(OC)c1`, in the experiment with NCI-H295R [1], the 50% inhibitory concentration (IC50) came out at 8.41 µM. In addition, in the experiment on NCI-H295R [2], the maximal response is -122%.
